In patent US20230042936A1, “PYRIDO[2,3-d]PYRIMIDIN-7(8H)-ONES AS CDK INHIBITORS” (PROSENESTAR LLC, priority 2020, published 2023):
Read-outs that look alike come from different tables or passages of the source.

Assays:
[1] = target: CDK3/CycC (Homo sapiens, UniProt Q00526); experiment: Kinase profiling; type: biochemical; conditions: 10 semi-logarithmic dilutions from 50 μM, singlicate
[2] = target: CDK2/CycA2 (Homo sapiens, UniProt P24941); experiment: Kinase profiling; type: biochemical
[3] = tested on: MDA-MB-231 cells; experiment: Senescence assay (β-Galactosidase staining); type: cell-based, human; conditions: at GI50; 3 days or 14 days exposure; FIGS. 2 and 3
Method: MDA-MB-231 cells were seeded in 6-well plates (65,000 cells/well) and treated with the selected compounds at their respective GI50. At 3, 7 and 14 days after treatment cells were stained with Senescence β-Galactosidase Staining Kit (Cell Signaling) at 37° C. overnight. Blue coloured senescent cells were counted with an optical microscope. Medium and compounds were refreshed every 3 days.
Cell cycle arrest can be irreversible in case of senescence induction.

[4] = target: CDK7/CycH/MAT1 (Homo sapiens, UniProt P50613); experiment: Kinase profiling; type: biochemical; conditions: 10 semi-logarithmic dilutions from 50 μM, singlicate
[5] = target: CDK19/CycC (Homo sapiens, UniProt Q9BWU1); experiment: Kinase profiling; type: biochemical; conditions: 10 semi-logarithmic dilutions from 50 μM, singlicate
[6] = tested on: MDA-MB-231 human breast cancer cells; experiment: Cell cycle analysis (DNA content, flow cytometry); type: cell-based; conditions: GI50 concentration; FIG. 1
Method: FIG. 1 depicts DNA content profiles of MDA-MB-231 human breast cancer cells treated with subject compounds or commercial CDK inhibitors, showing the percentage of cells at the different cell cycle phases after 48 hours of the treatments indicated. (n=6 technical replicates).
Cells were collected by trypsinization, washed with PBS and fixed with cold 70% ethanol. Cells were treated with 250 μg/ml RNase (Qiagen) for 30 minutes at 37° C. and stained with 10 μg/ml Propidium Iodide (Sigma). Cell cycle was analyzed by flow cytometry using a LSR Fortessa Analyzer. Cell cycle profiles were generated and analyzed with FlowJo software.
Cells were collected by tripsinization at several times after treatment with the indicated compounds and, then, fixed with cold 70% Ethanol. DNA content was determined by staining with propidium iodide (10 μg/ml, Sigma Aldrich). Data acquisition was performed with a LSR Fortessa analyzer (BD Biosciences) and analysed using FlowJo software.

[7] = target: CDK4/CycD3 (Homo sapiens, UniProt P11802); experiment: Kinase profiling; type: biochemical
Sequence of CDK4/CycD3 (P11802 whole entry): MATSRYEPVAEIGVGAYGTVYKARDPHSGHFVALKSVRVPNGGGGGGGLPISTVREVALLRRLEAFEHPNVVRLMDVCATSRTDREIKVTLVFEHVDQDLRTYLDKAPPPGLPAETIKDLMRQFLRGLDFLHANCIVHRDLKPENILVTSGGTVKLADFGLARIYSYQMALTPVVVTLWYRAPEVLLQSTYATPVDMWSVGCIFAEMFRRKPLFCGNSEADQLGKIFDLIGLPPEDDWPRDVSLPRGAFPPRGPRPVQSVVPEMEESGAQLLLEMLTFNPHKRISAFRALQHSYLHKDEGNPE
Sequence of CDK4/CycD3 (P30281 whole entry partner): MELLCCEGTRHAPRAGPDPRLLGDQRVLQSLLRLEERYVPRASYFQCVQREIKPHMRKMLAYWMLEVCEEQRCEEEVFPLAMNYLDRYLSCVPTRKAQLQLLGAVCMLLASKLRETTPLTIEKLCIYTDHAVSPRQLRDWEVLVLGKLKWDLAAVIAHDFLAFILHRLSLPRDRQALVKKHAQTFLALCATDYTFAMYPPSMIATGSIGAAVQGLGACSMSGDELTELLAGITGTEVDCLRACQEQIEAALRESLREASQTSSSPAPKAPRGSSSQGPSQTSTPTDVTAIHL

[8] = target: CDK4/CycD1 (Homo sapiens, UniProt P11802); experiment: Kinase profiling; type: biochemical; conditions: 10 semi-logarithmic dilutions from 50 μM, singlicate
Sequence of CDK4/CycD1 (P11802 whole entry): as the sequence (P11802 whole entry) above
Sequence of CDK4/CycD1 (P24385 whole entry partner): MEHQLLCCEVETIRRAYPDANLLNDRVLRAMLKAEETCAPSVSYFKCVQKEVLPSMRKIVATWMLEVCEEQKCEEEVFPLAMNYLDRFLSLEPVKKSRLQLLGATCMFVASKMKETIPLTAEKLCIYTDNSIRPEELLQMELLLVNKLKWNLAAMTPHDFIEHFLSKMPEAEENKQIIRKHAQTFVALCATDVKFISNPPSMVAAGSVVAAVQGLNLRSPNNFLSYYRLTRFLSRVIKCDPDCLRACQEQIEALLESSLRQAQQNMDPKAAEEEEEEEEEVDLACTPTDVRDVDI

[9] = target: HIPK2 (Homo sapiens, UniProt Q9H2X6); experiment: Kinase profiling; type: biochemical; conditions: 10 semi-logarithmic dilutions from 50 μM, singlicate; read-out: IC50 HIPK2
Sequence of HIPK2 (Q9H2X6 whole entry): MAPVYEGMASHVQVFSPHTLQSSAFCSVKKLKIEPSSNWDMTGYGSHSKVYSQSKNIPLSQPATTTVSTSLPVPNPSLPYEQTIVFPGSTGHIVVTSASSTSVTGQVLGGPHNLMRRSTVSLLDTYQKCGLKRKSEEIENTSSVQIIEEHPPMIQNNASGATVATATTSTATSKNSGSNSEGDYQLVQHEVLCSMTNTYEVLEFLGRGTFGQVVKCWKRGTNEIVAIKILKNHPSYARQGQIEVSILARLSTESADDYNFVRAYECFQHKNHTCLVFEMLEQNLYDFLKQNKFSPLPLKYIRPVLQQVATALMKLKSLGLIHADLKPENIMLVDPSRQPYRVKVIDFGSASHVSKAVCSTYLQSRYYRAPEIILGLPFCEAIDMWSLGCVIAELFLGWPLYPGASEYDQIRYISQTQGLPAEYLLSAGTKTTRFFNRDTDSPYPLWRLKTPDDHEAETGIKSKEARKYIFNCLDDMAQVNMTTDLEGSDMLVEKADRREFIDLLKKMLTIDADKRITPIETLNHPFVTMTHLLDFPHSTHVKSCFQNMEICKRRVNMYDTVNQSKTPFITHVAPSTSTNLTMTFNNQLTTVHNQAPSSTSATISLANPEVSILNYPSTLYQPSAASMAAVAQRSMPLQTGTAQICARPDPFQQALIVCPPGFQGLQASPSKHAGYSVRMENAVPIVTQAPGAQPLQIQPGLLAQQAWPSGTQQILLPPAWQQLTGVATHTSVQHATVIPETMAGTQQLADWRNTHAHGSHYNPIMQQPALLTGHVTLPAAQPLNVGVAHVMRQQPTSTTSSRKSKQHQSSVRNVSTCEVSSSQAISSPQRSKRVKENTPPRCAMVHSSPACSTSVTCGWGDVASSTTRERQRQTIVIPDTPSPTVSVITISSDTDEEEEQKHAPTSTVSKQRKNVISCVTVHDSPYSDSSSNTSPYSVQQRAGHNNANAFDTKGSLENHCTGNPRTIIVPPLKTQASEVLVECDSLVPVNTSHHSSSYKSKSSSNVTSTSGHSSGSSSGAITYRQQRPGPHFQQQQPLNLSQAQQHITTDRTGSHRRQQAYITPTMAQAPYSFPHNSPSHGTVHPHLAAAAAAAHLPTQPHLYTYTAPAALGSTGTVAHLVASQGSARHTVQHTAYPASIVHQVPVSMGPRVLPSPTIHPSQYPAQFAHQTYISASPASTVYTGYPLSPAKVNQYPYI

[10] = target: CDK8/CycC (Homo sapiens, UniProt P49336); experiment: Kinase profiling; type: biochemical; conditions: 10 semi-logarithmic dilutions from 50 μM, singlicate
Sequence of CDK8/CycC (P49336 whole entry): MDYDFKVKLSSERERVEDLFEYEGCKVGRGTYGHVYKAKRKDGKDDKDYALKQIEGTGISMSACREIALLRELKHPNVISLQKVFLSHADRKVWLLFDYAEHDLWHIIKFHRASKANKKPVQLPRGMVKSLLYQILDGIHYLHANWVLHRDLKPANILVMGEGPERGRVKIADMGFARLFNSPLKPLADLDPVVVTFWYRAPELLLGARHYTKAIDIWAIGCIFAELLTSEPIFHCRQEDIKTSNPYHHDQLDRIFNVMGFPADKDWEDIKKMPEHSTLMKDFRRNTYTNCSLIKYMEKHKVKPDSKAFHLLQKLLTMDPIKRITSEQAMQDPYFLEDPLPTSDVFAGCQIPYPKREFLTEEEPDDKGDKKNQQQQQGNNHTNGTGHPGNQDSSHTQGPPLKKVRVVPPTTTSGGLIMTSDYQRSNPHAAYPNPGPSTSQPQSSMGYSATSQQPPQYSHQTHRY
Sequence of CDK8/CycC (P24863 whole entry partner): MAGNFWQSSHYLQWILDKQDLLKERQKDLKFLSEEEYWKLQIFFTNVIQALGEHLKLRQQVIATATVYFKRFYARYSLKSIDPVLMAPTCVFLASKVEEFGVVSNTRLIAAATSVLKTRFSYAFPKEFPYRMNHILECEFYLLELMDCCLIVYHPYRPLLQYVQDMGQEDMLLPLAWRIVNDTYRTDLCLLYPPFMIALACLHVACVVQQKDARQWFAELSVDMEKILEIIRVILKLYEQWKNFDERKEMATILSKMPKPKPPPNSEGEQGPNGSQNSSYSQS

[11] = target: CDK1/CycA2 (Homo sapiens, UniProt P06493); experiment: Kinase profiling; type: biochemical
Sequence of CDK1/CycA2 (P06493 whole entry): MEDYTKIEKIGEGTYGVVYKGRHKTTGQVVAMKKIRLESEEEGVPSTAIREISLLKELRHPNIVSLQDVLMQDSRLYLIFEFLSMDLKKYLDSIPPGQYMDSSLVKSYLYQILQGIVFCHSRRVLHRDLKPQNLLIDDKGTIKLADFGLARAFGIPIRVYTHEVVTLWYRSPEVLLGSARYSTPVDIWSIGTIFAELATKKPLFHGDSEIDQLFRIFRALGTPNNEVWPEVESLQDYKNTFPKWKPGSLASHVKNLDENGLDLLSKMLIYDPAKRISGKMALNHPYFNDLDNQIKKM
Sequence of CDK1/CycA2 (P20248 whole entry partner): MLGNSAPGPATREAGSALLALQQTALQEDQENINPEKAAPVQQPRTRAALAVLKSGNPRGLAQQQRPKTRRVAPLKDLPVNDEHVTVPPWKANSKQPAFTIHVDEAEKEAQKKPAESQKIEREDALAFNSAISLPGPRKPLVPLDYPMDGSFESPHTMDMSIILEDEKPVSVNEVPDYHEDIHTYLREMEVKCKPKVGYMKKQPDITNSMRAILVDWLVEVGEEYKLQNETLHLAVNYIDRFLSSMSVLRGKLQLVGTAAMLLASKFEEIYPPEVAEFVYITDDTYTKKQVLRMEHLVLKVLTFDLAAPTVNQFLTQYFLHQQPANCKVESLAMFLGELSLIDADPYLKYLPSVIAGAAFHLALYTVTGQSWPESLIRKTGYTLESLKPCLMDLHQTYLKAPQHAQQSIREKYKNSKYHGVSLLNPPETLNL

[12] = target: CDK5/p25NCK (Homo sapiens, UniProt Q00535); experiment: Kinase profiling; type: biochemical
Sequence of CDK5/p25NCK (Q00535 whole entry): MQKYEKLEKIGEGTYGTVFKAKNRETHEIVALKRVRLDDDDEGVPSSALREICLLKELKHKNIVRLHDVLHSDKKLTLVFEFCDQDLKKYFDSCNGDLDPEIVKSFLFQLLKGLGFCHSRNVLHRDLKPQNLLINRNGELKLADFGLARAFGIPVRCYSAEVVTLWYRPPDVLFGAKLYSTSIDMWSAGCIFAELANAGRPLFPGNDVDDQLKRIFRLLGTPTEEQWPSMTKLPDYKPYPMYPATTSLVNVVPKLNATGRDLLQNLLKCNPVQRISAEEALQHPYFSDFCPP
Sequence of CDK5/p25NCK (Q15078 99-307 partner limits assumed): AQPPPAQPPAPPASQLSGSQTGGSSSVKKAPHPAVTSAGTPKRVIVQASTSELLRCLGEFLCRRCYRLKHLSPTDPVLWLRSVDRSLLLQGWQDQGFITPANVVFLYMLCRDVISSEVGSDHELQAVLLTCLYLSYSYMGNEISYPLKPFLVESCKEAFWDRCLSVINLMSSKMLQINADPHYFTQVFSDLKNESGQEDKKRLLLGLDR

[13] = target: PIM1 (Homo sapiens, UniProt P11309); experiment: Kinase profiling; type: biochemical; conditions: 10 semi-logarithmic dilutions from 50 μM, singlicate
Sequence of PIM1 (P11309 whole entry, species assumed): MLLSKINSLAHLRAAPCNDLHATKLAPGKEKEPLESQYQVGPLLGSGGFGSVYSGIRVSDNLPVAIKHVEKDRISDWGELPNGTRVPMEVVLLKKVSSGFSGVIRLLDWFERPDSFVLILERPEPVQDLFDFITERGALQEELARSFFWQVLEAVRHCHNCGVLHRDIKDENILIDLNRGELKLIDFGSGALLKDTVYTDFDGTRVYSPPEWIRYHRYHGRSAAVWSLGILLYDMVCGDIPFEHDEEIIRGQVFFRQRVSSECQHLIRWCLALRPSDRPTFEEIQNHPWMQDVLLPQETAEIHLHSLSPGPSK

[14] = 10 semi-logarithmic dilutions from 50 μM, singlicate

Sequence of CDK3/CycC (Q00526 whole entry): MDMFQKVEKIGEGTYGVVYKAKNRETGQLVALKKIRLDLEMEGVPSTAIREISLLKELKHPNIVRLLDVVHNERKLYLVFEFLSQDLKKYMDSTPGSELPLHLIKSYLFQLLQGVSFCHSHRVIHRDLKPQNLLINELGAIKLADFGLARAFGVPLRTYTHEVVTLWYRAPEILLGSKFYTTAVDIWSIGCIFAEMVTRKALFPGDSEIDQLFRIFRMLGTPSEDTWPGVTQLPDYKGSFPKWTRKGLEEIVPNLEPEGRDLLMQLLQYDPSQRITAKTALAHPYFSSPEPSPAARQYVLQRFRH
Sequence of CDK3/CycC (P24863 whole entry partner): as the sequence (P24863 whole entry partner) above

| Structure (SMILES) | IC50 [1] | IC50 [4] | IC50 [5] | IC50 [8] | IC50 [9] | IC50 [10] | IC50 [13] | IC50 [2, 14] | IC50 [7, 14] | IC50 [11, 14] | IC50 [12, 14] | IC50 [2] | SA-βGAL staining (senescence induction) [3] | cell cycle arrest by DNA content [6] | IC50 [7] | IC50 [11] | IC50 [12] | cell death (sub-G1 accumulation) [6] |
| --- | --- | --- | --- | --- | --- | --- | --- | --- | --- | --- | --- | --- | --- | --- | --- | --- | --- | --- |
| O=c1ccc2cnc(Nc3ccc(N4CCC(CCCO)CC4)cc3)nc2n1C1CC2CCC1C2 (centres unmarked) [PD-0183812, reference compound] | 5210 nM | 45400 nM | 17400 nM | 31.6 nM | > 50000 nM | 256 nM | 35900 nM |  |  |  |  | 341 nM | induced high levels of SA-βGAL staining | arrested cells with a 4N DNA content | 71.8 nM | 28800 nM | 30100 nM |  |
| O=c1ccc2cnc(Nc3ccc(N4CCC(CCCO)CC4)cc3F)nc2n1[C@@H]1CC2CCC1C2 (stereo partly drawn) [PS002, 8-((2R)-bicyclo[2.2.1]heptan-2-yl)-2-((2-fluoro-4-(4-(3-hydroxypropyl)piperidin-1-yl)phenyl)amino)pyrido[2,3-d]pyrimidin-7(8H)-one] | 27100 nM | 40700 nM | 24900 nM | 1270 nM | > 50000 nM | 122 nM | 27900 nM | 19700 nM | 3840 nM | 34000 nM | > 50000 nM |  |  |  |  |  |  |  |
| CC(=O)c1c(C)c2cnc(Nc3ccc(N4CCNCC4)cc3)nc2n([C@@H]2CC3CCC2C3)c1=O (stereo partly drawn) [PS010, 6-acetyl-8-((2R)-bicyclo[2.2.1]heptan-2-yl)-5-methyl-2-((4-(piperazin-1-yl)phenyl)amino)pyrido[2,3-d]pyrimidin-7(8H)-one] | 170 nM | 2030 nM | 2850 nM | 3.15 nM | 187 nM | 16800 nM | 8140 nM | 222 nM | 5.48 nM | 4210 nM | 395 nM |  |  | accumulation of cells both in G1 and G2/M phases |  |  |  | led to cell death |
| O=c1ccc2cnc(Nc3ccc(N4CCC(OCC5(CO)COC5)CC4)cc3)nc2n1[C@@H]1CC2CCC1C2 (stereo partly drawn) [PS016, 8-((2R)-bicyclo[2.2.1]heptan-2-yl)-2-((4-(4-((3-(hydroxymethyl)oxetan-3-yl)methoxy)piperidin-1-yl)phenyl)amino)pyrido[2,3-d]pyrimidin-7(8H)-one] | 555 nM | 2370 nM | 2790 nM | 8.86 nM | > 50000 nM | 37.9 nM | 40100 nM | 49.7 nM | 20.8 nM | 1360 nM | 652 nM |  |  | induced G2/M arrest |  |  |  |  |

Second part, led by results:

| IC50 [1] | IC50 [4] | IC50 [5] | IC50 [8] | IC50 [9] | IC50 [10] | IC50 [13] | IC50 [2, 14] | IC50 [7, 14] | IC50 [11, 14] | IC50 [12, 14] | Structure (SMILES) | IC50 [2] | SA-βGAL staining (senescence induction) [3] | cell cycle arrest by DNA content [6] | IC50 [7] | IC50 [11] | IC50 [12] | cell death (sub-G1 accumulation) [6] |
| --- | --- | --- | --- | --- | --- | --- | --- | --- | --- | --- | --- | --- | --- | --- | --- | --- | --- | --- |
| 3950 nM | 20000 nM | 19200 nM | 150 nM | > 50000 nM | 677 nM | > 50000 nM | 810 nM | 376 nM | 7860 nM | 4660 nM | O=c1ccc2cnc(Nc3ccc(N4CCC(CCCO)CC4)c(F)c3)nc2n1[C@@H]1CC2CCC1C2 (stereo partly drawn) [PS003, 8-((2R)-bicyclo[2.2.1]heptan-2-yl)-2-((3-fluoro-4-(4-(3-hydroxypropyl)piperidin-1-yl)phenyl)amino)pyrido[2,3-d]pyrimidin-7(8H)-one] |  | induced high levels of SA-βGAL staining | induced G2/M arrest |  |  |  |  |
| 54.1 nM | 72.3 nM | 234 nM | < 1.5 nM | 6060 nM | 17.1 nM | 7190 nM | 13 nM | 2.97 nM | 180 nM | 72.5 nM | CC(O)CCN1CCN(c2ccc(Nc3ncc4ccc(=O)n([C@@H]5CC6CCC5C6)c4n3)cc2)CC1 (stereo partly drawn) [PS005, 8-((2R)-bicyclo[2.2.1]heptan-2-yl)-2-((4-(4-(3-hydroxybutyl)piperazin-1-yl)phenyl)amino)pyrido[2,3-d]pyrimidin-7(8H)-one] |  |  | accumulation of cells both in G1 and G2/M phases |  |  |  | led to cell death |
| 40.1 nM | 91.1 nM | 288 nM | < 1.5 nM | 5560 nM | 307 nM | 485 nM | 17.1 nM | 2.25 nM | 208 nM | 52.3 nM | O=c1ccc2cnc(Nc3ccc(N4CCNCC4)cc3)nc2n1[C@@H]1CC2CCC1C2 (stereo partly drawn) [PS007, 8-((2R)-bicyclo[2.2.1]heptan-2-yl)-2-((4-(piperazin-1-yl)phenyl)amino)pyrido[2,3-d]pyrimidin-7(8H)-one] |  |  | accumulation of cells both in G1 and G2/M phases |  |  |  | led to cell death |
| 1860 nM | 11800 nM | 25700 nM | 98.9 nM | 5580 nM | 27300 nM | > 50000 nM | 3520 nM | 261 nM | 39100 nM | 9430 nM | CC(=O)c1c(C)c2cnc(Nc3ccc(N4CCC(CCCO)CC4)cc3)nc2n([C@@H]2CC3CCC2C3)c1=O (stereo partly drawn) [PS008, 6-acetyl-8-((2R)-bicyclo[2.2.1]heptan-2-yl)-2-((4-(4-(3-hydroxypropyl)piperidin-1-yl)phenyl)amino)-5-methylpyrido[2,3-d]pyrimidin-7(8H)-one] |  | induced high levels of SA-βGAL staining | induced accumulation of cells in G0/G1 |  |  |  |  |
